The values that follow come from ChEMBL document CHEMBL1201862, “PubChem BioAssay data set” (2004).

Calls of active or inactive are those of the source.

The target in one assay is Cytochrome P450 2C19 (Homo sapiens, UniProt P33261). In words: Cytochrome panel assay with activity outcomes. Panel member name: p450-cyp2c19 Compounds with AC50 equal or less than 10 uM are considered active. The format is functional. The settings on record: read-out: AC50.
In a further assay the target is Cytochrome P450 2C9 (Homo sapiens, UniProt P11712).
Cytochrome P450 2C9, sequence (P11712 whole entry): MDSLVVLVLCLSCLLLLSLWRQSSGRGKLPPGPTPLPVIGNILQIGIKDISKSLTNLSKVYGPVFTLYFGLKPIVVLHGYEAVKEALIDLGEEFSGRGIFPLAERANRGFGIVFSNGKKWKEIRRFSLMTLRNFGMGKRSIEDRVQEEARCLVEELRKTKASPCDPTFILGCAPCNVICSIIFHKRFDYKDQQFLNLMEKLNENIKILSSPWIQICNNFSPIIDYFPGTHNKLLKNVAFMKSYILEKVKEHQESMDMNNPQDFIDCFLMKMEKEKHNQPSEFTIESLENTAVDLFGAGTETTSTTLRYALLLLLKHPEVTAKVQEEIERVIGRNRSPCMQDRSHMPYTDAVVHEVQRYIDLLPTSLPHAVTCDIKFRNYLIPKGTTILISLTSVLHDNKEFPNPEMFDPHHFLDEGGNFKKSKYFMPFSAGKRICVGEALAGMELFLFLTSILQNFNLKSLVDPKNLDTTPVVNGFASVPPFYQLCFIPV
In a further assay the test system is INS1. In words: beta cell apoptosis inhibitors, cytokine rescue, dose response, luminescence, retest (AID 449756).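 Also: cell death triggered by IL-1 beta plus TNF-alpha plus IFN-gamma mixture; protective hits raise ATP signal compared with cytokine alone wells.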 The format is functional, cell-based. The settings on record: Rattus norvegicus.
Assay [1] addresses T1, Heat shock factor protein 1 (Mus musculus, UniProt P38532).
T1 sequence (P38532 whole entry): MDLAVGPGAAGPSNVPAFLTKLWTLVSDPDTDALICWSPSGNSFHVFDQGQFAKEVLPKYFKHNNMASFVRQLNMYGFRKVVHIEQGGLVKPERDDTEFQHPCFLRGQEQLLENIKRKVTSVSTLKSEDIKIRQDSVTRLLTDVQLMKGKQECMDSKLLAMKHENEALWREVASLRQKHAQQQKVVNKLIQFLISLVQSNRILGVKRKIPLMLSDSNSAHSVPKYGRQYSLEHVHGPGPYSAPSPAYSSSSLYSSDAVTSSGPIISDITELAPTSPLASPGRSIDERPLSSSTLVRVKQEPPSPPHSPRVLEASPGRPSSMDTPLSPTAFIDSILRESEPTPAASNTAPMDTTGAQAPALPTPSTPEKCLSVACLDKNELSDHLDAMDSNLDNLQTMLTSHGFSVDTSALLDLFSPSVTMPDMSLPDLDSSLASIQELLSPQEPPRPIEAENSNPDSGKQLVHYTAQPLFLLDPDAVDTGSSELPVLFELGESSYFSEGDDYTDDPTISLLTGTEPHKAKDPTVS
The assay is described as follows: inhibition of MG132-induced HSE-luciferase signal, confirmation, cell-based, NIH3T3, luminescence, dose retest (AID 2382).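 Also: NIH3T3 fibroblasts with HSF1-driven luciferase reporter stressed by proteasome inhibitor MG132; luminescence from HSF1-driven luciferase expression after 8 hours of MG132 stress.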 The format is functional.

Another assay has as its system H4. The assay is described as follows: Luminescence Cell-Based Dose Response HTS to Identify Activators of 5'UTR Stem-Loop Driven Prion Protein mRNA Translation in H4 Neuroglioblastoma Cells. [Related pubchem assays: 1829 (Project Summary), 1814 (Primary HTS)]. The format is functional. The settings on record: Homo sapiens.
A short description of assay [2]: Luminescence Cell-Based Dose Confirmation HTS to Identify Activators of 5'UTR Stem-Loop Driven Alpha-Synuclein mRNA Translation in H4 Neuroglioblastoma Cells. [Related pubchem assays: 1829 (Project Summary), 1814 (Primary HTS)]. The format is functional.
A short description of assay [3]: Luminescence Cell-Based Dose Response HTS to Identify Activators of Luciferase Translation or Activity in H4 […] Cells. [Related pubchem assays: 1829 (Project Summary), 1814 (Primary HTS)]. The format is functional.
Assay [4] can be described thus: inhibitors of intracellular T. cruzi replication, confirmation, NIH3T3 host cells, beta-gal luminescence (AID 2044).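 Also: intracellular parasites grown in NIH/3T3 mouse fibroblasts as host cells; luminescent beta-galactosidase reporter signal from transgenic T. cruzi replicating inside host cells; inhibitors lower the luminescence signal.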 The format is functional, cell-based.
A short description of assay [5]: cytotoxicity toward NIH3T3 fibroblasts, dose response, counter-screen, cell-based, ATP luminescence, mouse fibroblasts (AID 2010).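 Also: cells exposed to compound for about 90 hours before reading.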 The format is functional.
The target in a further assay is T2, Cytochrome P450 1A2 (Homo sapiens, UniProt P05177).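 Also: PubChem cytochrome P450 panel assay, CYP1A2 panel member.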
T2 sequence (P05177 whole entry): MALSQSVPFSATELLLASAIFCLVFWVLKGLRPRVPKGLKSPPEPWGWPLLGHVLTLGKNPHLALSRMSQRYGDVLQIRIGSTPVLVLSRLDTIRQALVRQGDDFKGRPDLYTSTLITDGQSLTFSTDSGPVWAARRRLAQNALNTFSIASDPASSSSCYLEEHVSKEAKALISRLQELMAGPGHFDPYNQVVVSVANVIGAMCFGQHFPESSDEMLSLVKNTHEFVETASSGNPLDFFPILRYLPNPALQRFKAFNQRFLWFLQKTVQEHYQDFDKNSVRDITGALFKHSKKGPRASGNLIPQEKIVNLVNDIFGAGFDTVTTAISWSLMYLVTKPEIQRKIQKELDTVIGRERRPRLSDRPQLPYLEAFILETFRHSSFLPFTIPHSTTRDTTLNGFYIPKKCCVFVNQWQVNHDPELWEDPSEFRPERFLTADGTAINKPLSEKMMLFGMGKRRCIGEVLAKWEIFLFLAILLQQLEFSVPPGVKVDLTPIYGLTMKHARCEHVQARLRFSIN

Cytochrome P450 2C19, sequence (P33261 whole entry): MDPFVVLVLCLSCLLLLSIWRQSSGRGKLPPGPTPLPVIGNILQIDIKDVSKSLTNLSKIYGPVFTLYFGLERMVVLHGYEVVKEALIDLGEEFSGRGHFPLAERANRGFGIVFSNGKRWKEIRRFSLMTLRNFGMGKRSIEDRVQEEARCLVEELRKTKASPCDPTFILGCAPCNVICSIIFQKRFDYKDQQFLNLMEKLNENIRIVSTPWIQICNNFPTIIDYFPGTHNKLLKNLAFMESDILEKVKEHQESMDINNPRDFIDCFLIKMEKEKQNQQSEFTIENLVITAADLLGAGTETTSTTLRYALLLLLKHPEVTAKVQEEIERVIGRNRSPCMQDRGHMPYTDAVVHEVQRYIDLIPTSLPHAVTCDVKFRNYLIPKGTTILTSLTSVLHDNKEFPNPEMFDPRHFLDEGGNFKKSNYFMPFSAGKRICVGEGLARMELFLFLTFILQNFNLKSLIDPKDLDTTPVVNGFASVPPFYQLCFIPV

For the compound `O=C(Nc1ccccc1)N1CCOCC1`, the AC50 on Cytochrome P450 2C19 was 31.6 µM (inconclusive); on Cytochrome P450 2C9, 0.562 µM (inconclusive).
With `Cc1ccc(N(CC(=O)Nc2cc(C)cc(C)c2)S(=O)(=O)c2c(C)noc2C)cc1`, the concentration at half-maximal activity (AC50) in the assay with INS1 is 8.43 µM (active).
With `CCCNC(=O)OC[C@@H]1O[C@H](CCO/N=C(\C)CCC(=O)OC[C@@H]2O[C@H](c3ccccc3)C=C[C@@H]2Oc2ccc(OC)cc2)C=C[C@@H]1Oc1ccc(OC)cc1`, the AC50 at Cytochrome P450 2C19 was 0.0794 µM (inconclusive); at Cytochrome P450 2C9, 3.98 µM (inconclusive).
For the compound `COC(=O)c1nc(Cl)c(Cl)c(N)c1Cl`, the 50% effective concentration (EC50) in assay [1] is given as > 195 µM (not active).
Regarding `COc1cccc(C2CC(c3ccccc3)n3ncnc3N2)c1` (stereo not drawn), the 50% effective concentration (EC50) in assay [1] is given as > 195 µM (not active).
With `CN(Cc1ccco1)c1ncnc2ccc(-c3ccc4c(c3)OCO4)cc12`, the AC50 on Cytochrome P450 2C9 is 1.26 µM (inconclusive).
For the compound `CC(O)CNCCCOc1ccc(Cl)cc1C(C)(C)C` (stereo not drawn), the half-maximal effective concentration (EC50) in assay [1] was 142 µM (active).
As for `FC(F)(F)c1ccccc1N=C(S)N1CCN(Cc2ccc3c(c2)OCO3)CC1`, in the assay with INS1, the concentration at half-maximal activity (AC50) is 7.02 µM (active).
In the case of `O=C(Nc1ccc(N2CCN(Cc3ccccc3Cl)CC2)cc1)c1cccnc1`, the AC50 in the assay with INS1 was 4.75 µM (active).
As to `COc1ccc(-n2cccc2/C=C2/NC(=O)N(c3cccc(Cl)c3)C2=O)cc1`, the concentration giving a half-maximal response (EC50) in assay [1] is 30.2 µM (active).
As for `COc1ccccc1CNc1ccnc(-c2ccoc2)n1`, at Cytochrome P450 2C9, the half-maximal activity concentration (AC50) was 1.26 µM (inconclusive).
With `COc1ccc(C(=O)COC(=O)CCN2C(=O)C3C4CC(C(Br)C4Br)C3C2=O)cc1` (stereo not drawn), the half-maximal effective concentration (EC50) in [1] is listed as > 195 µM (not active).
Take `Cc1ccc(S(=O)(=O)NC(C)(C)CSc2nncn2N)cc1`: in assay [1], the EC50 is > 195 µM (not active).
On the same count and under the same terms, in the case of `CC(=O)Nc1cc[n+](C(C)C(=O)c2ccccc2)cc1` (stereo not drawn) it was > 195 µM (not active).
In the case of `O=C(CCl)NN1C(=O)NC(c2ccccc2)(c2ccccc2)C1=O`, the concentration for a half-maximal effect (EC50) with H4 was > 120 µM (not active); in assay [2] it was 13.1 µM (active); in assay [3] it was > 120 µM (not active).
Turning to `CC(C)C[C@H](NC(=O)N1CCCCCC1)C(=O)O`, the EC50 in [1] is given as > 195 µM (not active).
On the same count and under the same terms, in the case of `CC1CCCN(C(=O)CSc2nnc(-c3ccc(O)cc3)o2)C1` (stereo not drawn) it was > 195 µM (not active).
`C=CC(=O)NC(C)(C)Cc1ccccc1`: at Cytochrome P450 2C9, the AC50 is 10 µM (inconclusive).
Regarding `COc1ccc(-[n+]2cc(-c3ccccc3)n3c2CCCCC3)cc1`, the results for the 50% effective concentration (EC50) in assay [4] and in assay [5] were 0.453 µM (active) and > 30 µM (not active), respectively. For the same compound, in the assay on INS1, the AC50 was 1.66 µM (active).
For the compound `COc1ccc(N2C(=O)CCC(C(=O)Nc3ccccn3)C2c2ccc(OC)c(OC)c2)cc1` (stereo not drawn), at Cytochrome P450 2C9, the half-maximal activity concentration (AC50) was 3.16 µM (inconclusive).
As for `CCc1nnc(NC(=O)CSc2nc(C3CCCCC3)nc3ccccc23)s1`, the values for the half-maximal activity concentration (AC50) at Cytochrome P450 2C19 and on Cytochrome P450 2C9 were 5.01 µM (inconclusive) and 3.55 µM (inconclusive), respectively.
On to `COc1cccc(Cn2c(=O)c(-c3cn(C)c4ccccc34)nc3cnc(OC)nc32)c1`, for which the results for the concentration at half-maximal activity (AC50) on Cytochrome P450 2C9 and at Cytochrome P450 1A2 were 12.6 µM (inconclusive) and 15.8 µM (inconclusive), respectively.
For `N=C(N)Nc1nc(CCN2C(=O)c3ccccc3C2=O)cs1`, the figures for the half-maximal activity concentration (AC50) on Cytochrome P450 2C9 and on Cytochrome P450 1A2 were 17.8 µM (inconclusive) and 12.6 µM (inconclusive), respectively.
For `CCCc1cc2c(cc1NC(=O)c1ccccc1C)OCO2`, at Cytochrome P450 2C9, the half-maximal activity concentration (AC50) is 0.0562 µM (inconclusive).
As to `Cc1ccc(-n2c(=O)[nH]cc(C(=O)N3CCc4ccccc43)c2=O)cc1`, the AC50 on Cytochrome P450 2C9 is 1 µM (inconclusive).
`O=C(Nc1cccc(Cl)c1)N1CCOCC1`: the concentration for a half-maximal effect (EC50) in assay [1] is given as > 195 µM (not active).
For `COc1ccc(C(=O)N/N=C/c2ccccc2OC(=O)c2ccccc2)cc1`, the half-maximal activity concentration (AC50) in the assay on INS1 was 2.35 µM (active).
For `CN(C)c1ccc(/C=N/NC(=O)c2cccc(N3CCCC3=O)c2)cc1`, the EC50 in assay [1] was > 195 µM (not active).
As to `Cc1ccc2c(c1)N(C)/C(=C/c1cccc[n+]1CCO)S2`, the AC50 in the assay with INS1 was 4.37 µM (active).

What is called AC50 is the concentration at which the activity in the assay is half-maximal. Usually EC50 stands for the midpoint of the concentration-response curve.
